Source: ChEMBL document CHEMBL3044769, “A brief synthesis of natural antifeedant, 1-(2,4,6-trimethoxyphenyl) but-2(E)-en-1-one” (1994)

Test system: Spodoptera litura
Test: Antifeedant activity in Spodoptera litura assessed as feeding ratio at 0.1% of the diet
Assay type: functional

C/C=C/C(=O)c1c(OC)cc(OC)cc1OC
Activity: 50.5%
